Source: patent publication US10669296B2, “LXR agonists and uses thereof” (Rgenix, Inc., priority 2014, dated 2020)

How the values were obtained:
ApoE = ApoE gene expression analysis by qRT-PCR in MeWo cancer cells; format: cell-based; conditions: 48 h; for Emax at 1 µM / Emax at 10 µM: read-out: ApoE gene expression in relation to GW3965 at 1 μM (100%)
Protocol: Cancer cells (MeWo) were treated in presence of drug or control (DMSO) at indicated concentrations for 48 h. RNA was extracted from whole cell lysates using the Total RNA Purification Kit (17200, Norgen, Thorold, Canada). 600 ng of total RNA was then reverse transcribed into cDNA using the Verso cDNA Synthesis Kit (AB-1453/B, Fisher Scientific). 6 ng of the resulting cDNA was then mixed with SYBR green PCR Master Mix (4309155, Applied Biosystems) and the appropriate primers. Each reaction was performed in quadruplicate, and mRNA expression was quantified by performing real-time PCR amplification using a StepOne Plus Real-Time PCR System (Applied Biosystems). GAPDH was used as an endogenous control for normalization. EC50 values were calculated using Prism6 software and plotting expression values versus drug concentration. The following primers were used: [table] The results are shown in relation to GW3965 ApoE expression at 1 μM (i.e. 100%).

Cancer cells (MeWo) = test: Matrigel invasion assay; format: cell-based; conditions: 1 μM drug, invasion 24 h
Protocol: Cancer cells (MeWo) were pre-treated in presence of 1 μM drug or control (DMSO) for 72 h after which cancer cells were switched to serum-starvation in 0.2% FBS DMEM-based media for 16 h in the presence of the drug or control, respectively. Trans-well invasion chambers (354480, BD Biosciences, Bedford, Mass.) were pre-equilibrated in DMEM-based media prior to the beginning of the assay by adding 0.5 ml of starvation media to the top and bottom chambers. After 30 min, the media in the top chamber was removed, and 0.5 ml of media containing 1×10^5 cancer cells in the presence of the drug, was added into each matrigel-coated trans-well insert. Cells were allowed to invade through the matrigel-coated inserts for 24 h at 37° C.

EC50 (ApoE; Homo sapiens, MeWo) [nM]	EC50 (ApoE) [nM]	SMILES	Emax at 1 µM (ApoE; Homo sapiens, MeWo, 1 μM) [%]	Emax at 10 µM (ApoE; Homo sapiens, MeWo) [%]	% of Cells Migrated Compared to Control (Cancer cells (MeWo)) [%]	ApoE gene expression in relation to GW3965 at 1 μM (100%) (ApoE; 1 μM)
< 1000	–	O=C(Cc1cccc(OCCCN(Cc2cccc(C(F)(F)F)c2Cl)CC(c2ccccc2)c2ccccc2)c1)NO [Compound 1, 2-{3-[3-({[2-chloro-3-(trifluoromethyl)phenyl]methyl}(2,2-diphenylethy)amino)propoxy]phenyl}-N-hydroxyacetamide]	> 80	< 40	<95	–
–	< 300	CS(=O)(=O)N1CCCC(OCCCN(Cc2cccc(C(F)(F)F)c2Cl)CC(c2ccccc2)c2ccccc2)C1 (centres unmarked) [Compound 29, {[2-chloro-3-(trifluoromethyl)phenyl]methyl}(2,2-diphenylethyl){3-[(1-methanesulfonylpiperidin-3-yl)oxy]propyl}amine]	–	> 80	<50	++ (“++” > 40% induction)
< 1000	–	C[C@H](CCO[C@H]1CCCN(S(C)(=O)=O)C1)N(Cc1cccc(C(F)(F)F)c1Cl)CC(c1ccccc1)c1ccccc1 [Compound 31, {[2-chloro-3-(trifluoromethyl)phenyl]methyl}(2,2-diphenylethyl)[(2R)-4-{[(3S)-1-methanesulfonylpiperidin-3-yl]oxy}butan-2-yl]amine]	> 40	> 80	<70	–
< 1000	–	C[C@@H](CN(CCCOc1cc(F)c(CO)c(S(C)(=O)=O)c1)Cc1cccc(C(F)(F)F)c1Cl)c1ccccc1 [Compound 79, {4-[3-({[2-chloro-3-(trifluoromethyl)phenyl]methyl}[(2R)-2-phenylpropyl]amino)propoxy]-2-fluoro-6-methanesulfonylphenyl}methanol]	> 80	> 80	–	–
< 1000	–	C[C@H](CN(CCCOc1cc(F)c(CO)c(S(C)(=O)=O)c1)Cc1cccc(C(F)(F)F)c1Cl)c1ccccc1 [Compound 80, {4-[3-({[2-chloro-3-(trifluoromethyl)phenyl]methyl}[(2S)-2-phenylpropyl]amino)propoxy]-2-fluoro-6-methanesulfonylphenyl}methanol]	> 80	> 80	–	–
< 300	–	CS(=O)(=O)c1cc(OCCCN(CCc2ccccc2)Cc2cccc(C(F)(F)F)c2Cl)cc(F)c1CO [Compound 81, {4-[3-({[2-chloro-3-(trifluoromethyl)phenyl]methyl}(2-phenylethyl)amino)propoxy]-2-fluoro-6-methanesulfonylphenyl}methanol]	> 40	> 40	–	–
–	–	CC(C)(CN(CCCOc1cc(F)c(CO)c(S(C)(=O)=O)c1)Cc1cccc(C(F)(F)F)c1Cl)c1ccccc1 [Compound 82, {4-[3-({[2-chloro-3-(trifluoromethyl)phenyl]methyl}(2-methyl-2-phenylpropyl)amino)propoxy]-2-fluoro-6-methanesulfonylphenyl}methanol]	> 40	–	–	–
< 1000	–	CS(=O)(=O)c1cc(OCCCN(Cc2ccccc2)Cc2cccc(C(F)(F)F)c2Cl)cc(F)c1CO [Compound 83, (4-{3-[benzyl({[2-chloro-3-(trifluoromethyl)phenyl]methyl})amino]propoxy}-2-fluoro-6-methanesulfonylphenyl) methanol]	> 80	–	–	–
–	–	[2H]C([2H])(O)c1c(F)cc(OCCCN(Cc2cccc(C(F)(F)F)c2Cl)CC(c2ccccc2)c2ccccc2)cc1S(C)(=O)=O [Compound 84, {4-[3-({[2-chloro-3-(trifluoromethyl)phenyl]methyl}(2,2-diphenylethyl)amino)propoxy]-2-fluoro-6-methanesulfonylphenyl}(^2H2)methanol]	> 40	> 40	–	–
< 1000	–	CC(O)c1c(F)cc(OCCCN(Cc2cccc(C(F)(F)F)c2Cl)CC(c2ccccc2)c2ccccc2)cc1S(C)(=O)=O (centres unmarked) [Compound 85, 1-{4-[3-({[2-chloro-3-(trifluoromethyl)phenyl]methyl}(2,2-diphenylethyl)amino)propoxy]-2-fluoro-6-methanesulfonylphenyl}ethan-1-ol]	> 80	–	–	–
–	–	CC(=O)c1c(F)cc(OCCCN(Cc2cccc(C(F)(F)F)c2Cl)CC(c2ccccc2)c2ccccc2)cc1S(C)(=O)=O [Compound 87, 1-{4-[3-({[2-chloro-3-(trifluoromethyl)phenyl]methyl}(2,2-diphenylethyl)amino)propoxy]-2-fluoro-6-methanesulfonylphenyl}ethan-1-one]	> 40	–	–	–
–	–	CS(=O)(=O)c1cc(OCCCN(Cc2cccc(C(F)(F)F)c2Cl)CC(c2ccccc2)c2ccccc2)cc(F)c1CN [Compound 88, {4-[3-({[2-chloro-3-(trifluoromethyl)phenyl]methyl}(2,2-diphenylethyl)amino)propoxy]-2-fluoro-6-methanesulfonylphenyl}methanamine]	> 80	–	–	–
< 1000	–	CC(=O)NCc1c(F)cc(OCCCN(Cc2cccc(C(F)(F)F)c2Cl)CC(c2ccccc2)c2ccccc2)cc1S(C)(=O)=O [Compound 89, N-({4-[3-({[2-chloro-3-(trifluoromethyl)phenyl]methyl}(2,2-diphenylethyl)amino)propoxy]-2-fluoro-6-methanesulfonylphenyl}methyl)acetamide]	> 80	> 80	–	–
< 1000	–	CS(=O)(=O)c1cc(OCCCN(Cc2cccc(C(F)(F)F)c2Cl)CC(c2ccccc2)c2ccccc2)cc(F)c1C(N)=O [Compound 90, 4-[3-({[2-chloro-3-(trifluoromethyl)phenyl]methyl}(2,2-diphenylethyl)amino)-propoxy]-2-fluoro-6-methanesulfonylbenzamide]	> 80	–	–	–
–	–	CS(=O)(=O)c1cc(OCCCN(Cc2cccc(C(F)(F)F)c2Cl)CC(c2ccccc2)c2ccccc2)cc(F)c1CCO [Compound 91, 2-{4-[3-({[2-chloro-3-(trifluoromethyl)phenyl]methyl}(2,2-diphenylethyl)amino)propoxy]-2-fluoro-6-methanesulfonylphenyl} ethan-1-ol]	> 80	> 40	–	–
–	–	CNC(=O)c1c(F)cc(OCCCN(Cc2cccc(C(F)(F)F)c2Cl)CC(c2ccccc2)c2ccccc2)cc1S(C)(=O)=O [Compound 92, 4-[3-({[2-chloro-3-(trifluoromethyl)phenyl]methyl}(2,2-diphenylethyl)amino)-propoxy]-2-fluoro-6-methanesulfonyl-N-methylbenzamide]	> 40	–	–	–
–	–	CS(=O)(=O)c1cc(OCCCN(Cc2cccc(C(F)(F)F)c2Cl)CC(c2ccccc2)c2ccccc2)cc(F)c1C(=O)C(F)(F)F [Compound 93, 1-{4-[3-({[2-chloro-3-(trifluoromethyl)phenyl]methyl}(2,2-diphenylethyl)amino)propoxy]-2-fluoro-6-methanesulfonylphenyl}-2,2,2-trifluoroethan-1-one]	< 40	< 40	–	–
–	–	CS(=O)(=O)c1cc(OCCCN(Cc2cccc(C(F)(F)F)c2Cl)CC(c2ccccc2)c2ccccc2)cc(F)c1C(O)C(F)(F)F (centres unmarked) [Compound 95, 1-{4-[3-({[2-chloro-3-(trifluoromethyl)phenyl]methyl}(2,2-diphenylethyl)amino)propoxy]-2-fluoro-6-methanesulfonylphenyl}-2,2,2-trifluoroethan-1-ol]	> 40	–	–	–
–	–	CN(C)C(=O)c1c(F)cc(OCCCN(Cc2cccc(C(F)(F)F)c2Cl)CC(c2ccccc2)c2ccccc2)cc1S(C)(=O)=O [Compound 96, 4-[3-({[2-chloro-3-(trifluoromethyl)phenyl]methyl}(2,2-diphenylethyl)amino)propoxy]-2-fluoro-6-methanesulfonyl-N,N-dimethylbenzamide]	> 40	–	–	–
< 1000	–	CC(CCOc1cccc(CC(=O)O)c1)N(Cc1cccc(C(F)(F)F)c1Cl)CC(c1ccccc1)c1ccccc1 (centres unmarked) [SB742881, reference compound]	> 40	> 40	<70	–

SMILES	EC50 (ApoE; Homo sapiens, MeWo) [nM]	EC50 (ApoE) [nM]	Emax at 1 µM (ApoE; Homo sapiens, MeWo, 1 μM) [%]	Emax at 10 µM (ApoE; Homo sapiens, MeWo) [%]	% of Cells Migrated Compared to Control (Cancer cells (MeWo)) [%]	ApoE gene expression in relation to GW3965 at 1 μM (100%) (ApoE; 1 μM)
C[C@H](CCOc1cc(F)c(CO)c(S(C)(=O)=O)c1)N(Cc1cccc(C(F)(F)F)c1Cl)CC(c1ccccc1)c1ccccc1 [Compound 9, {4-[(3R)-3-({[2-chloro-3-(trifluoromethyl)phenyl]methyl}(2,2-diphenylethyl)amino)butoxy]-2-fluoro-6-methanesulfonylphenyl}methanol]	< 300	–	> 40	> 80	<50	–
